In test [1] the target is T1, recombinant human LIMK1 (Homo sapiens, UniProt P53667).
T1 construct: 6His (N); purchased Millipore 14-656
Kind of test: Radiometric LIMK1 kinase assay. The format is biochemical. Conditions: Lineweaver-Burk plots. How it is done: Compounds were tested in a radiometric LIMK1 assay performed in a final volume of 25 μl containing 3 μl of compound or equivalent amount of DMSO as control, 2 μl (1 ng) of N-terminal 6His-tagged recombinant human LIMK1 (Millipore #14-656, in 20 mM MOPS pH=7.0, 1 mM EDTA, 0.01% NP-40, 5% glycerol, 0.1% β-mercaptoethanol, 1 mg·ml^−1 Bovine Serum Albumin) and a mixture containing […] pH=7.0, 200 μM EDTA, 70 μM of recombinant GST-cofilin 1, 25 mM Mg(OAc)2, and 360 μM [γ-^32P]-ATP. Assays were performed at 30° C. for 10 minutes before termination by the addition of 5 μl of 3% orthophosphoric acid. 25 μL aliquots were then spotted onto P80 filter square (4 cm^2). Filters were rinsed three times for 5 minutes by 0.5% orthophosphoric acid at 4° C. and transferred to scintillation vial. Following addition of scintillation cocktail (Ultima Gold, Perkin-Elmer), ^32P incorporation was measured using a scintillation counter.
FIG. 10 illustrates the inhibition of LIMK1 by Compound 1 (H06). Radiometric LIMK1 kinase assay was performed as described in Example 2; the following conditions were tested: without LIMK1 (‘−LIMK1’), with LIMK1 (1 ng) in presence of 5 μM H06 (‘5 μM H06’), 25 μM H06 (‘25 μM H06’) or with equivalent amount of DMSO (‘Ctl’).
Error bars represent standard error mean. […]

For test [2], the system named is NCI-H460 cells. As to the kind of experiment: Cell growth test (MTT), NCI-H460. The format is cell-based. Conditions: Homo sapiens; NCI-H460, MTT test after 48 h; read-out: IC50 (concentration necessary to inhibit 50% of cell growth). How it is done: (§1) The cell growth tests are carried out in transparent 96-well microplates (Greiner) after having seeded 100 μl/well of a cell solution having 2·10^5 cells/ml to 5·10^5 cells/ml (depending on the cell lines). After incubating for 24 h at 37° C. with 5% CO2, the culture medium is removed and replaced with solutions of the molecule to be tested at various concentrations. The cells are incubated with these molecules for an additional 48 h at 37° C. with 5% CO2. After elimination of the medium, the cells are washed with blank RPMI (Gibco, Invitrogen) then incubated with 3-(4,5-dimethylthiazol-2-yl)-2,5-diphenyltetrazolium bromide or MTT (0.5 mg/ml final concentration) for 4 h at 37° C. with 5% CO2. MTT (Sigma Aldrich) makes it possible to estimate the viability of the cells by measuring the activity of a mitochondrial enzyme. Indeed, in living cells, mitochondrial dehydrogenases are capable of cleaving the tetrazolium ring, thus leading to the formation of formazan crystals that are insoluble in an aqueous medium. These crystals are dissolved with the addition of a solubilizing solution (isopropanol, 10% Triton X100, 0.1 N HCl). After stirring, the absorbance is measured at 570 nm using the FLUOstar OPTIMA microplate reader. […]
(§2) The viability of the cells was evaluated using an MTT test after 48 h of exposure with various concentrations of molecules (from 100 μM to 0.001 μM). […]

The test system of test [3] is 786-O cells. Kind of test: Cell growth test (MTT), 786-O. It is filed as cell-based. Conditions: Homo sapiens, 786-0, MTT test after 48 h, read-out: IC50 (concentration necessary to inhibit 50% of cell growth). Here is the method: as §1, §2
The subject of test [4] is HeLa cells. As to the kind of experiment: Cell growth test (MTT), HeLa. The format is cell-based. Particulars: Homo sapiens, MTT test after 48 h, read-out: IC50 (concentration necessary to inhibit 50% of cell growth). Here is the method:
as §1, §2

Test [5] relates to MCF-7 cells. Kind of test: Cell growth test (MTT), MCF-7. The format is cell-based. Particulars: Homo sapiens, MCF7; MCF-7, MTT test after 48 h; read-out: IC50 (concentration necessary to inhibit 50% of cell growth). Here is the method: as §1, §2
Test [6] deals with purified tubulin. As to the kind of experiment: In vitro assembly of purified tubulin. Conditions: tubulin 1 mg/ml; Compound 1 at 25, 50, 100 μM. It is filed as biochemical. Here is the method: FIG. 5 compares the effects of the Compound 1 of the invention with the effect of paclitaxel (Taxol®) on the assembly of the tubulin purified in vitro. Purified tubulin (1 mg/ml) is incubated in PEM buffer in the presence of GTP (1 mM), MgCl2 (5 mM), DAPI (10 μM) at 37° C. The effect of Compound 1 of the invention at various concentrations (×25 μM, ⊚ 50 μM and Δ 100 μM) is compared to that of paclitaxel (Taxol®) (▪) and of DMSO ( ? );
In order to know whether Compound 1 of the invention exerts its stabilizing effect via a direct action on tubulin, such as paclitaxel does, or by means an effector, its effect on the in vitro assembly of tubulin in microtubules has been analyzed. The first experiments were carried out on purified tubulin (1 mg/ml).

T1 sequence (P53667 whole entry): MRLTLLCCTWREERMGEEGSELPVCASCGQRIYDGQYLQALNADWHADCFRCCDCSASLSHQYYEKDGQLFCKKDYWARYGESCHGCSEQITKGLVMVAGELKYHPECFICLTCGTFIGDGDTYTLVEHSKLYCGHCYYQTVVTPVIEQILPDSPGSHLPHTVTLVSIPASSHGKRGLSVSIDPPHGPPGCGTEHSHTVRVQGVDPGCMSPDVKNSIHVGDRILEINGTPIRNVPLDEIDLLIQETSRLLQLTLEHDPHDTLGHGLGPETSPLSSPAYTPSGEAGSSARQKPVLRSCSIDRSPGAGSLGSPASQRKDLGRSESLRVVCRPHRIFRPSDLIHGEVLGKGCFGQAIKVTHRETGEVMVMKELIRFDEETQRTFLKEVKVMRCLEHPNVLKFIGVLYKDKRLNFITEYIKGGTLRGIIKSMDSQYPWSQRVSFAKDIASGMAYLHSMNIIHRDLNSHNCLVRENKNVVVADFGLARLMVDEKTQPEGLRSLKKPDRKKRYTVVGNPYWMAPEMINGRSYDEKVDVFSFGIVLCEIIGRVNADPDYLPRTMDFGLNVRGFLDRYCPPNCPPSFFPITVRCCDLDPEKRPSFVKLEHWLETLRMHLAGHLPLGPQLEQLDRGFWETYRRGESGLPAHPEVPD

As to `Cc1c2cc[nH]c(=O)c2c(C)c2c1[nH]c1ccc(OC(=O)c3ccccc3)cc12` [Compound 1, 9-benzoyloxy-5,11-dimethyl-2H,6H-pyrido[4,3-b]carbazol-1-one], the “Inhibition mechanism on LIMK1” value in test [1] (70 nM and 280 nM compound) is reported as “ATP competitor”. The Ki in test [1] (ATP competition) is roughly 0.06 µM. Moreover, the IC50 in test [2] turned out to be 6.65 µM; in test [3] it was 55.1 µM; in test [4], 1.21 µM; in test [5], 62.2 µM. For the same compound, in test [6], the “Assembly of purified tubulin in vitro” value is recorded as “No assembly is observed”.
